Experimental data from US7678829B2, “Oculoselective drugs and prodrugs” (QLT Inc., priority 2004, dated 2010).

Legend:
albino rabbits = test: Corneal anesthesia measurements (Cochet's esthesiometer); format: in vivo, rabbit
Experimental: The effect of a 50 μl single instillation of 0.3%, 0.5%, 1.0% and 2.0% solution of compound 7 on corneal anesthesia, after a single instillation in the conjunctival sac of the right eyes of albino rabbits (N=5) was measured using a Cochet's esthesiometer (nylon thread: 0.12 mm diameter, 10 mm long). Corneal anesthesia was evaluated by the number of comeal mechanical stimuli necessary to induce a blinking reflex. The effect of drug solutions was compared with sterile 0.9% NaCl treated animals (control group) and 0.4% oxybuprocaine (Novesine®).

[1] = Ocular bioavailability, aqueous humor analyzed by HPLC; format: in vivo; conditions: rabbit aqueous humor
Experimental: Three rabbits were used per time point. The 50 μl test substance was administered in a single instillation using a micropipette into the conjunctival sac of the right and the left eyes. The rabbits were anesthetized with an intramuscular injection of Imalgéne® 1000 (ketamine 32 mg/kg), and Rompun® (xylasine 7.5 mg/kg). They were then desanguinated by cardiac puncture and thereafter euthanized by an overdose of pentobarbital. Immediately after death, the eyes were micro-dissected to obtain: cornea (C), aqueous humor (AH), and iris-ciliary body (ICB). All samples were stored at −80° C. Only aqueous humor (AH) samples were analyzed by HPLC.

[2] = Accelerated stability test of 0.25% solutions in acetate buffer, HPLC; format: physicochemical; conditions: for projected shelf-life: conventional eye drop formulation, at room temperature
Experimental: An accelerated stability test was conducted on 0.25% solutions of compounds 6, 7, and 8 (Example 2) at 40° C. for 1, 2, 3, 4, 8 and 12 weeks and monitored for the disappearance of the prodrugs and appearance of the parent compound by HPLC analysis. The parent compound (referred to hereinafter as compound 4) has the formula: […]
The respective compounds were dissolved in an acetate buffer, pH 3.5 (0.018% sodium acetate, 0.135% acetic acid, 0.9% sodium chloride in water for injection) to obtain 0.25% solution. The stability of the compounds was determined at 40° C. for 1, 2, 3, 4, 8, and 12 weeks. The concentration of the parent compound as well as the concentrations of the prodrug compounds 6, 7, and 8 at each time point by HPLC method.

Structure (SMILES)	corneal sensitivity (local anesthetic activity) (albino rabbits; at 1%)	level of the prodrug itself in aqueous humor [1]	projected shelf-life [2]	corneal sensitivity (local anesthetic activity) (albino rabbits; 50 μl single instillation of 0.3%, 0.5%, 1.0% and 2.0% solution, compared to 0.4% oxybuprocaine)	relative stability (FIG. 1, percent degradation) ([2]; 0.25% solution, 40° C., pH 3.5, compared among compounds 6, 7 and 8)
Cc1cc(O)c(O)cc1C(=O)OCC(CNC(C)(C)CNC(=O)C1CCOC1)OC(=O)C(C)(C)C (centres unmarked) [Compound 6, reference compound]	complete comeal sensitivity loss	below the detection limit	2.6 months	–	–
Cc1cc(O)c(O)cc1C(=O)OCC(CNC(C)(C)CNC(=O)C1CCOC1)OC(=O)C1(C)CC1 (centres unmarked) [Compound 7, 4,5-Dihydroxy-2-methyl-benzoic acid 3-{1,1-dimethyl-2-[(tetrahydro-furan-3-carbonyl)-amino]-ethylamino}-2-(1-methyl-cyclopropanecarbonyloxy)-propyl ester]	–	also present in aqueous humor	at least 18 months	no comeal sensitivity	most stable
Cc1cc(O)c(O)cc1C(=O)OCC(CNC(C)(C)CNC(=O)C1CCOC1)OC(=O)C1CC1(C)C (centres unmarked) [Compound 8, 4,5-dihydroxy-2-methyl-benzoic acid 2-(2,2-dimethyl-cyclopropanecarbonyloxy)-3-{1,1-dimethyl-2-[(tetrahydro-furan-3-carbonyl)-amino]-ethylamino}-propyl ester]	–	–	7.9 months	–	–
